Series [1] concerns Leishmania donovani promastigotes. As to the kind of experiment: L. donovani screening (Alamarblue). The series is classed as cell-based. Put shortly: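 Growth read as Alamarblue fluorescence (530 nm excitation, 590 nm emission) after culture at 27° C. Single-point screen: 10 μM compound, 4×10^5 cells/ml, 96 h; titration: 0.005–10 μM in third-steps, 1×10^6 cells/ml, 72 h, using exponentially growing procyclic promastigotes.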
In general terms: Resazurin is reduced to fluorescent resorufin, in cell work by metabolically active cells.

The subject of series [2] is Giardia duodenalis (strain WB trophozoites). Put plainly: Giardia adherence assay. It is filed as cell-based. To be noted: exposed for 5 hours. The method, then:
Giardia strain WB was grown until confluent (grown and maintained in TYI-S-33 medium with 10% foetal bovine serum). For the assay, media of a confluent culture was replaced with fresh TYI-S-33 medium. Cultures were then cold shocked (on ice) for 40 minutes to detach trophozoites. The cell density of the cultures was adjusted to 1×10^6 cells/ml and 1 ml was added to each well of a 24 well plate already containing 1 ml of diluted compounds (see below). […] After incubation the coverslips were removed, air-dried and stained with Diff-Quik (a Romanowski stain variant). Coverslips were mounted onto glass slides using polymount. Images at 10× magnification were taken at 5 random locations per coverslip. […] Stock solutions of compounds were prepared in DMSO at 25.6 mg/ml. Compounds were diluted 1:100 in TYI-S-33 medium. A 1:2 serial dilution was then performed in TYI-S-33 medium in 24 well plates.

A short description of series [3]: Microsomal stability, human. The series is classed as in vitro ADME. To be noted: human, 1 μM. As to the method: Incubation methods: The metabolic stability assay was performed by incubating each test compound (at 1 μM) with human and mouse liver microsomes (Xenotech, Lot#1210057 and 1310211, respectively) at 37° C. and 0.4 mg/mL protein concentration. The metabolic reaction was initiated by the addition of an NADPH-regenerating system (i.e. NADPH is the cofactor required for CYP450-mediated metabolism) and quenched at various time points over a 60 minute incubation period by the addition of acetonitrile containing diazepam as internal standard. Control samples (containing no NADPH) were included (and quenched at 2, 30 and 60 minutes) to monitor for potential degradation in the absence of cofactor. Analytical conditions: Instrument: Waters Micromass Xevo G2 QTOF coupled to a Waters Acquity UPLC; Detection: Positive electrospray ionisation under MSE mode; Cone Voltage 30 V; Column: Ascentis Express Amide column (50×2.1 mm, 2.7 μm); LC conditions: Gradient cycle time: 4 minutes; Injection volume: 5 μL; Flow rate: 0.4 mL/min; Mobile phase: Acetonitrile-water gradient with 0.05% formic acid Metabolite; Identification: A metabolite screen was not included in this study, however, since data was acquired using MSE mode, which allows for the simultaneous acquisition of low and high collision energy MS spectra, a post-hoc metabolite search may be conducted at a later date if warranted. […]

Series [4] is described as follows: Cell toxicity assay (WST-1). The series is classed as cell-based, mouse. The following applies: mouse, RAW 264.7, 24 hours, read-out: GI50 macrophage. In a few lines: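 RAW 264.7 macrophages plated at 2×10^4 cells/ml, rested 2 h at 37 °C, then exposed to compounds (from DMSO) for 24 h. Metabolic activity read by WST-1 at 450 nm after 1 h; IC50 derived, selectivity index as macrophage IC50 divided by antiparasitic IC50.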
A general note: Tetrazolium assays rely on reduction of a dye to a coloured formazan, in cell work by metabolically active cells.

A short description of series [5]: Release from Formulation B (Franz diffusion cells). It is filed as physicochemical. The following applies: absolute ethanol receptor, 32° C., up to 24 hours. As to the method:
Franz diffusion cells were utilized to quantify the release rate of NCL 812 and NCL099 from its topical formulations. Five milliliters of absolute ethanol, which was chosen as the desired release medium, was loaded into the receptor chamber. Temperature of the receptor fluid was kept constant, at 32±1° C. using a water jacket. Acetyl cellulose membranes, with pore size of 0.45 μm (Pall Corporation) was selected and placed between donor and receptor chamber. Followed by that, a number of test samples (Formulation B) was loaded into the donor chamber. One milliliter of receptor fluid was collected at regular time intervals of 0.25, 0.50, 0.75, 1, 2, 3, 4, 5, 6, 7, 8 and 24 hours through the sampling port. One milliliter of fresh absolute ethanol was immediately returned to the receptor chamber. UV-HPLC was utilized to analyse the content of the receptor fluids attained.

The structures appear in SMILES notation.

The term IC50 denotes the concentration needed to halve the response being measured. A high value points to a need for much substance. What is called GI50 is the concentration at which growth is held to half of that of the control. Take `N=C(N/N=C/c1ccc(Cl)cc1)N/N=C/c1ccc(Cl)cc1` [NCL812, 1,3-bis[(E)-(4-chlorophenyl)methyleneamino]guanidine]: in series [1] (GI50 of macrophages divided by IC50 of parasites), the “L. donovani SI” value came to 5.12. Further, the IC50 in series [1] (Leishmania donovani, 72 h) came out at 2.9 ± 0.24 µM. Besides, in series [2], the “number of adherent trophozoites” value is listed as “significant decreases”. In addition, in series [3], the “predicted hepatic extraction ratio (EH)” value is less than 0.3. Further, in series [4], the GI50 at 24 h turned out to be 14.8 ± 1.34 µM. In addition, the “release profile from Formulation B” value in series [5] was “acceptable release profile”.

The record behind these values is US10392363B2, “Methods for treating protozoan infections” (Neoculi Pty Ltd., priority 2014, dated 2019).
